Source: article PMC7245553 (Cell chemical biology, 2020)

How the values were obtained:
[1] = test system: clinical drug-sensitive and drug-resistant strains of M. tuberculosis; assay: Whole-cell activity versus clinical M. tuberculosis strains; assay type: cell-based, Mycobacterium tuberculosis
[2] = test system: DG167-resistant M. tuberculosis; assay type: cell-based, Mycobacterium tuberculosis

Row | Structure (SMILES) | whole-cell activity versus clinical strains [1] | cross-resistance with DG167 [2]
1 | Cc1n[nH]c2ccc(NS(=O)(=O)CCCCF)cc12 [JSF-3285, 4-fluoro-N-(3-methyl-1H-indazol-5-yl)butane-1-sulfonamide] | comparable with its efficacy versus the H37Rv strain | cross-resistant with DG167
2 | CCCCCS(=O)(=O)Nc1ccc2[nH]c(C#N)c(C)c2c1 [Compound 10, N-(2-cyano-3-methyl-1H-indol-5-yl)pentane-1-sulfonamide] | maintained their in vitro potency | cross-resistant
3 | CCCCS(=O)(=O)Nc1ccc2[nH]c(C#N)c(C)c2c1 [Compound 9, N-(2-cyano-3-methyl-1H-indol-5-yl)butane-1-sulfonamide] | maintained their in vitro potency | cross-resistant
